For 12 molecules, IC50 results are on record in patent US20230365627A1, “MACROCYCLIC PEPTIDE BORONATE IMMUNOMODULATORS” (Bristol-Myers Squibb Company, priority 2020, published 2023).

*1 amine or outer side, *2 acyl side, *3 side chain or, on linkers, in order; H or OH if unused. Where a SMILES comes first, the peptide text is derived from it. Bridges are numbered along the chain shown (N, C = ends). [ ]: non-standard residue; d: D form. Trp(1-CH2CO) = O=C([C@H](Cc1cn(CC(=O)[*:3])c2ccccc12)N[*:1])[*:2]; X25 = O=C([C@H](CNCc1cc(F)c(B(O)O[*:3])c(F)c1)N[*:1])[*:2]; X29 = COc1ccc(B(O)O[*:3])c(CNC[C@H](N[*:1])C(=O)[*:2])c1; X24 = O=C([C@H](CNCc1ccc(B(O)O[*:3])c(F)c1)N[*:1])[*:2]; X5 = O=C([C@H](CNCc1ccc(Cl)c(B(O)O[*:3])c1)N[*:1])[*:2]; X15 = COc1cccc(B(O)O[*:3])c1CNC[C@H](N[*:1])C(=O)[*:2]; X4 = O=C([C@H](CNCc1cc(Cl)ccc1B(O)O[*:3])N[*:1])[*:2]; X32 = O=C([C@H](CNCc1ccc(B(O)O[*:3])cc1)N[*:1])[*:2]; X2 = O=C([C@H](CNCc1ccc(B(O)O[*:3])cn1)N[*:1])[*:2]; X6 = O=C([C@H](CNCc1cccc(B(O)O[*:3])c1)N[*:1])[*:2]; X27 = O=C([C@H](CNCc1ccccc1B(O)O[*:3])N[*:1])[*:2]; Hyp = O=C(O)[C@@H]1C[C@@H](O)CN1; NMeNle = CCCC[C@H](NC)C(=O)O; NMeA = CN[C@@H](C)C(=O)O; Dab = NCC[C@H](N)C(=O)O

This test addresses PD-1/PD-L1 (Homo sapiens (Human), UniProt Q9NZQ7). The experiment in a line: PD-1/PD-L1 Homogenous Time-Resolved Fluorescence (HTRF) binding assay. The settings on record: PD-L1-His 10 nM, PD-1-Ig 20 nM; read-out: HTRF IC50. The text has this:
Methods for Testing the Ability of Macrocyclic Peptides to Compete for the Binding of PD-1 to PD-L1 Using Homogenous Time-Resolved Fluorescence (HTRF) Binding Assays
The ability of the compounds of formula (I) to bind to PD-L1 was investigated using a PD-1/PD-L1 Homogenous Time-Resolved Fluorescence (HTRF) binding assay.
Homogenous Time-Resolved Fluorescence (HTRF) Binding Assay
The interaction of PD-1 and PD-L1 can be assessed using soluble, purified preparations of the extracellular domains of the two proteins. The PD-1 and PD-L1 protein extracellular domains were expressed as fusion proteins with detection tags, for PD-1, the tag was the Fc portion of Immunoglobulin (PD-1-Ig) and for PD-L1 it was the 6 histidine motif (PD-L1-His). All binding studies were performed in an HTRF assay buffer consisting of dPBS supplemented with 0.1% […] bovine serum albumin and 0.05% (v/v) Tween-20. For the h/PD-L1-His binding assay, inhibitors were pre-incubated with PD-L1-His (10 nM final) for 15 m in 4 μl of assay buffer, followed by addition of PD-1-Ig (20 nM final) in 1 μl of assay buffer and further incubation for 15 m. HTRF detection was achieved using europium cryptate-labeled anti-Ig (1 nM final) and allophycocyanin (APC) labeled anti-His (20 nM final). Antibodies were diluted in HTRF detection buffer and 5 μl was dispensed on top of the binding reaction. The reaction mixture was allowed to equilibrate for 30 minutes and the resulting signal (665 nm/620 nm ratio) was obtained using an EnVision fluorometer. Additional binding assays were established between the human proteins PD-1-Ig/PD-L2-His (20 & 5 nM, respectively) and CD80-His/PD-L1-Ig (100 & 10 nM, respectively).
Recombinant Proteins: Human PD-1 (25-167) with a C-terminal human Fc domain of immunoglobulin G (Ig) epitope tag [hPD-1 (25-167)-3S-IG] and human PD-L1 (18-239) with a C-terminal His epitope tag [hPD-L1(18-239)-TVMV-His] were expressed in HEK293T cells and purified sequentially by ProteinA affinity chromatography and size exclusion chromatography. Human PD-L2-His and CD80-His was obtained through commercial sources.
Table 1 lists the IC50 values for representative examples of this disclosure measured in the PD-1/PD-L1 Homogenous Time-Resolved Fluorescence (HTRF) binding assay.

Chain of PD-1/PD-L1 (Q9NZQ7 18-239): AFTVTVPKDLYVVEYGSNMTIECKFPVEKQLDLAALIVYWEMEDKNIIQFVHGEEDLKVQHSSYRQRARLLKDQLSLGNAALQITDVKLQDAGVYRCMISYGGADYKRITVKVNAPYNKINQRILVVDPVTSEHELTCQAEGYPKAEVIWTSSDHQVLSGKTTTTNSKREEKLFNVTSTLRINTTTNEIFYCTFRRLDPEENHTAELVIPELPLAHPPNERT

Regarding `CCCC[C@H]1C(=O)N(C)[C@@H](CCCC)C(=O)N[C@@H](CC(C)C)C(=O)N[C@H](C(=O)NCC(N)=O)CSCC(=O)N[C@@H](Cc2ccc(O)cc2)C(=O)N(C)[C@@H](C)C(=O)N[C@@H](CC(N)=O)C(=O)N2CCC[C@H]2C(=O)N[C@H]2CNCc3cccc(c3)B(O)OC(=O)Cn3cc(c4ccccc43)C[C@H](NC(=O)[C@H](CCN)NC(=O)[C@H](Cc3c[nH]c4ccccc34)NC(=O)[C@@H]3C[C@@H](O)CN3C(=O)[C@H](CC(C)C)NC2=O)C(=O)N1C` [Example 1001] ({CH2CO}-Y[NMeA]NP[X6]L[Hyp]W[Dab][Trp(1-CH2CO)][NMeNle][NMeNle]LCG-NH2; ester 5-10; thioether N-14), the IC50 (usually the concentration that gives 50% inhibition) was determined as 3.8 nM.

Consider `CCCC[C@H]1C(=O)N(C)[C@@H](CCCC)C(=O)N[C@@H](CC(C)C)C(=O)N[C@H](C(=O)NCC(N)=O)CSCC(=O)N[C@@H](Cc2ccc(O)cc2)C(=O)N(C)[C@@H](C)C(=O)N[C@@H](CC(N)=O)C(=O)N2CCC[C@H]2C(=O)N[C@H]2CNCc3ccc(cc3)B(O)OC(=O)Cn3cc(c4ccccc43)C[C@H](NC(=O)[C@H](CCN)NC(=O)[C@H](Cc3c[nH]c4ccccc34)NC(=O)[C@@H]3C[C@@H](O)CN3C(=O)[C@H](CC(C)C)NC2=O)C(=O)N1C` [Example 1002] ({CH2CO}-Y[NMeA]NP[X32]L[Hyp]W[Dab][Trp(1-CH2CO)][NMeNle][NMeNle]LCG-NH2; ester 5-10; thioether N-14), for which the IC50 was determined as 3.5 nM. For `CCCC[C@H]1C(=O)N(C)[C@@H](CCCC)C(=O)N[C@@H](CC(C)C)C(=O)N[C@H](C(=O)NCC(N)=O)CSCC(=O)N[C@@H](Cc2ccc(O)cc2)C(=O)N(C)[C@@H](C)C(=O)N[C@@H](CC(N)=O)C(=O)N2CCC[C@H]2C(=O)N[C@H]2CNCc3ccccc3B(O)OC(=O)Cn3cc(c4ccccc43)C[C@H](NC(=O)[C@H](CCN)NC(=O)[C@H](Cc3c[nH]c4ccccc34)NC(=O)[C@@H]3C[C@@H](O)CN3C(=O)[C@H](CC(C)C)NC2=O)C(=O)N1C` [Example 1003] ({CH2CO}-Y[NMeA]NP[X27]L[Hyp]W[Dab][Trp(1-CH2CO)][NMeNle][NMeNle]LCG-NH2; ester 5-10; thioether N-14), the IC50 amounted to 7.8 nM. Turning to `CCCC[C@H]1C(=O)N(C)[C@@H](CCCC)C(=O)N[C@@H](CC(C)C)C(=O)N[C@H](C(=O)NCC(N)=O)CSCC(=O)N[C@@H](Cc2ccc(O)cc2)C(=O)N(C)[C@@H](C)C(=O)N[C@@H](CC(N)=O)C(=O)N2CCC[C@H]2C(=O)N[C@H]2CNCc3ccc(cc3)B3OB(O3)c3ccc(cc3)CNCC[C@H](NC(=O)[C@H](Cc3c[nH]c4ccccc34)NC(=O)[C@@H]3C[C@@H](O)CN3C(=O)[C@H](CC(C)C)NC2=O)C(=O)N[C@@H](Cc2cn(CC(=O)O)c3ccccc23)C(=O)N1C` [Example 1004], the IC50 was 6.3 nM. For the molecule `CCCC[C@H]1C(=O)N(C)[C@@H](CCCC)C(=O)N[C@@H](CC(C)C)C(=O)N[C@H](C(=O)NCC(N)=O)CSCC(=O)N[C@@H](Cc2ccc(O)cc2)C(=O)N(C)[C@@H](C)C(=O)N[C@@H](CC(N)=O)C(=O)N2CCC[C@H]2C(=O)N[C@H]2CNCc3ccc(cc3)B3OB(O3)c3cccc(c3)CNCC[C@H](NC(=O)[C@H](Cc3c[nH]c4ccccc34)NC(=O)[C@@H]3C[C@@H](O)CN3C(=O)[C@H](CC(C)C)NC2=O)C(=O)N[C@@H](Cc2cn(CC(=O)O)c3ccccc23)C(=O)N1C` [Example 1005], the IC50 was found to be 7.1 nM.

As for `CCCC[C@H]1C(=O)N(C)[C@@H](CCCC)C(=O)N[C@@H](CC(C)C)C(=O)N[C@H](C(=O)NCC(N)=O)CSCC(=O)N[C@@H](Cc2ccc(O)cc2)C(=O)N(C)[C@@H](C)C(=O)N[C@@H](CC(N)=O)C(=O)N2CCC[C@H]2C(=O)N[C@H]2CNCc3cc(OC)ccc3B(O)OC(=O)Cn3cc(c4ccccc43)C[C@H](NC(=O)[C@H](CCN)NC(=O)[C@H](Cc3c[nH]c4ccccc34)NC(=O)[C@@H]3C[C@@H](O)CN3C(=O)[C@H](CC(C)C)NC2=O)C(=O)N1C` [Example 1006] ({CH2CO}-Y[NMeA]NP[X29]L[Hyp]W[Dab][Trp(1-CH2CO)][NMeNle][NMeNle]LCG-NH2; ester 5-10; thioether N-14), the IC50 is 9 nM. The value for `CCCC[C@H]1C(=O)N(C)[C@@H](CCCC)C(=O)N[C@@H](CC(C)C)C(=O)N[C@H](C(=O)NCC(N)=O)CSCC(=O)N[C@@H](Cc2ccc(O)cc2)C(=O)N(C)[C@@H](C)C(=O)N[C@@H](CC(N)=O)C(=O)N2CCC[C@H]2C(=O)N[C@H]2CNCc3cc(F)c(c(F)c3)B(O)OC(=O)Cn3cc(c4ccccc43)C[C@H](NC(=O)[C@H](CCN)NC(=O)[C@H](Cc3c[nH]c4ccccc34)NC(=O)[C@@H]3C[C@@H](O)CN3C(=O)[C@H](CC(C)C)NC2=O)C(=O)N1C` [Example 1007] ({CH2CO}-Y[NMeA]NP[X25]L[Hyp]W[Dab][Trp(1-CH2CO)][NMeNle][NMeNle]LCG-NH2; ester 5-10; thioether N-14) was 9.9 nM; that for `CCCC[C@H]1C(=O)N(C)[C@@H](CCCC)C(=O)N[C@@H](CC(C)C)C(=O)N[C@H](C(=O)NCC(N)=O)CSCC(=O)N[C@@H](Cc2ccc(O)cc2)C(=O)N(C)[C@@H](C)C(=O)N[C@@H](CC(N)=O)C(=O)N2CCC[C@H]2C(=O)N[C@H]2CNCc3cc(Cl)ccc3B(O)OC(=O)Cn3cc(c4ccccc43)C[C@H](NC(=O)[C@H](CCN)NC(=O)[C@H](Cc3c[nH]c4ccccc34)NC(=O)[C@@H]3C[C@@H](O)CN3C(=O)[C@H](CC(C)C)NC2=O)C(=O)N1C` [Example 1008] ({CH2CO}-Y[NMeA]NP[X4]L[Hyp]W[Dab][Trp(1-CH2CO)][NMeNle][NMeNle]LCG-NH2; ester 5-10; thioether N-14) was 6.7 nM. Take `CCCC[C@H]1C(=O)N(C)[C@@H](CCCC)C(=O)N[C@@H](CC(C)C)C(=O)N[C@H](C(=O)NCC(N)=O)CSCC(=O)N[C@@H](Cc2ccc(O)cc2)C(=O)N(C)[C@@H](C)C(=O)N[C@@H](CC(N)=O)C(=O)N2CCC[C@H]2C(=O)N[C@H]2CNCc3ccc(c(F)c3)B(O)OC(=O)Cn3cc(c4ccccc43)C[C@H](NC(=O)[C@H](CCN)NC(=O)[C@H](Cc3c[nH]c4ccccc34)NC(=O)[C@@H]3C[C@@H](O)CN3C(=O)[C@H](CC(C)C)NC2=O)C(=O)N1C` [Example 1009] ({CH2CO}-Y[NMeA]NP[X24]L[Hyp]W[Dab][Trp(1-CH2CO)][NMeNle][NMeNle]LCG-NH2; ester 5-10; thioether N-14): the IC50 came out at 2.6 nM. With `CCCC[C@H]1C(=O)N(C)[C@@H](CCCC)C(=O)N[C@@H](CC(C)C)C(=O)N[C@H](C(=O)NCC(N)=O)CSCC(=O)N[C@@H](Cc2ccc(O)cc2)C(=O)N(C)[C@@H](C)C(=O)N[C@@H](CC(N)=O)C(=O)N2CCC[C@H]2C(=O)N[C@H]2CNCc3ccc(cn3)B(O)OC(=O)Cn3cc(c4ccccc43)C[C@H](NC(=O)[C@H](CCN)NC(=O)[C@H](Cc3c[nH]c4ccccc34)NC(=O)[C@@H]3C[C@@H](O)CN3C(=O)[C@H](CC(C)C)NC2=O)C(=O)N1C` [Example 1010] ({CH2CO}-Y[NMeA]NP[X2]L[Hyp]W[Dab][Trp(1-CH2CO)][NMeNle][NMeNle]LCG-NH2; ester 5-10; thioether N-14) the figure was 8.6 nM. With `CCCC[C@H]1C(=O)N(C)[C@@H](CCCC)C(=O)N[C@@H](CC(C)C)C(=O)N[C@H](C(=O)NCC(N)=O)CSCC(=O)N[C@@H](Cc2ccc(O)cc2)C(=O)N(C)[C@@H](C)C(=O)N[C@@H](CC(N)=O)C(=O)N2CCC[C@H]2C(=O)N[C@H]2CNCc3ccc(Cl)c(c3)B(O)OC(=O)Cn3cc(c4ccccc43)C[C@H](NC(=O)[C@H](CCN)NC(=O)[C@H](Cc3c[nH]c4ccccc34)NC(=O)[C@@H]3C[C@@H](O)CN3C(=O)[C@H](CC(C)C)NC2=O)C(=O)N1C` [Example 1011] ({CH2CO}-Y[NMeA]NP[X5]L[Hyp]W[Dab][Trp(1-CH2CO)][NMeNle][NMeNle]LCG-NH2; ester 5-10; thioether N-14) the figure was 6.4 nM. With `CCCC[C@H]1C(=O)N(C)[C@@H](CCCC)C(=O)N[C@@H](CC(C)C)C(=O)N[C@H](C(=O)NCC(N)=O)CSCC(=O)N[C@@H](Cc2ccc(O)cc2)C(=O)N(C)[C@@H](C)C(=O)N[C@@H](CC(N)=O)C(=O)N2CCC[C@H]2C(=O)N[C@H]2CNCc3c(OC)cccc3B(O)OC(=O)Cn3cc(c4ccccc43)C[C@H](NC(=O)[C@H](CCN)NC(=O)[C@H](Cc3c[nH]c4ccccc34)NC(=O)[C@@H]3C[C@@H](O)CN3C(=O)[C@H](CC(C)C)NC2=O)C(=O)N1C` [Example 1012] ({CH2CO}-Y[NMeA]NP[X15]L[Hyp]W[Dab][Trp(1-CH2CO)][NMeNle][NMeNle]LCG-NH2; ester 5-10; thioether N-14) the figure was 3 nM.
